Test results: ChEMBL document CHEMBL2073954, “Transport activity of human MRP3 expressed in Sf9 cells: comparative studies with rat MRP3” (Pharm Res, 2002)

B1: Multidrug resistance associated protein (Homo sapiens), Q96QA9 (protein)
chain: MDALCGSGELGSKFWDSNLSVHTENPDLTPCFQNSLLAWVPCIYLWVALPCYLLYLRHHCRGYIILSHLSKLKMVLGVLLWCVSWADLFYSFHGLVHGRAPAPVFFVTPLVVGVTMLLATLLIQYERLQGVQSSGVLIIFWFLCVVCAIVPFRSKILLAKAEGEISDPFRFTTFYIHFALVLSALILACFREKPPFFSAKNVDPNPYPETSAGFLSRLFFWWFTKMAIYGYRHPLEEKDLWSLKEEDRSQMVVQQLLEAWRKQEKQTARHKASAAPGKNASGEDEVLLGARPRPRKPSFLKALLATFGSSFLISACFKLIQDLLSFINPQLLSILIRFISNPMAPSWWGFLVAGLMFLCSMMQSLILQHYYHYIFVTGVKFRTGIMGVIYRKALVITNSVKRASTVGEIVNLMSVDAQRFMDLAPFLNLLWSAPLQIILAIYFLWQNLGPSVLAGVAFMVLLIPLNGAVAVKMRAFQVKQMKLKDSRIKLMSEILNGIKVLKLYAWEPSFLKQVEGIRQGELQLLRTAAYLHTTTTFTWMCSPFLVTLITLWVYVYVDPNNVLDAEKAFVSVSLFNILRLPLNMLPQLISNLTQASVSLKRIQQFLSQEELDPQSVERKTISPGYAITIHSGTFTWAQDLPPTLHSLDIQVPKGALVAVVGPVGCGKSSLVSALLGEMEKLEGKVHMKGSVAYVPQQAWIQNCTLQENVLFGKALNPKRYQQTLEACALLADLEMLPGGDQTEIGEKGINLSGGQRQRVSLARAVYSDADIFLLDDPLSAVDSHVAKHIFDHVIGPEGVLAGKTRVLVTHGISFLPQTDFIIVLADGQVSEMGPYPALLQRNGSFANFLCNYAPDEDQGHLEDSWTALEGAEDKEALLIEDTLSNHTDLTDNDPVTYVVQKQFMRQLSALSSDGEGQGRPVPRRHLGPSEKVQVTEAKADGALTQEEKAAIGTVELSVFWDYAKAVGLCTTLAICLLYVGQSAAAIGANVWLSAWTNDAMADSRQNNTSLRLGVYAALGILQGFLVMLAAMAMAAGGIQAARVLHQALLHNKIRSPQSFFDTTPSGRILNCFSKDIYVVDEVLAPVILMLLNSFFNAISTLVVIMASTPLFTVVILPLAVLYTLVQRFYAATSRQLKRLESVSRSPIYSHFSETVTGASVIRAYNRSRDFEIISDTKVDANQRSCYPYIISNRWLSIGVEFVGNCVVLFAALFAVIGRSSLNPGLVGLSVSYSLQVTFALNWMIRMMSDLESNIVAVERVKEYSKTETEAPWVVEGSRPPEGWPPRGEVEFRNYSVRYRPGLDLVLRDLSLHVHGGEKVGIVGRTGAGKSSMTLCLFRILEAAKGEIRIDGLNVADIGDPILFSGTLRMNLDPFGSYSEEDIWWALELSHLHTFVSSQPAGLDFQCSEGGENLSVGQRQLVCLARALLRKSRILVLDEATAAIDLETDNLIQATIRTQFDTCTVLTIAHRLNTIMDYTRVLVLDKGVVAEFDSPANLIAARGIFYGMARDAGLA
B2: ATP-binding cassette sub-family C member 3 (Rattus norvegicus) (protein)
chain: MDRLCGSGELGSKFWDSNLTVYTNTPDLTPCFQNSLLAWVPCIYLWAALPCYLFYLRHHRLGYIVLSCLSRLKTALGVLLWCISWVDLFYSFHGLVHGSSPAPVFFITPLLVGITMLLATLLIQYERLRGVRSSGVLIIFWLLCVICAIIPFRSKILLALAEGKILDPFRFTTFYIYFALVLCAFILSCFQEKPPLFSPENLDTNPCPEASAGFFSRLSFWWFTKLAILGYRRPLEDSDLWSLSEEDCSHKVVQRLLEAWQKQQTQASGPQTAALEPKIAGEDEVLLKARPKTKKPSFLRALVRTFTSSLLMGACFKLIQDLSPSSTHSCSASSSGLFRPHGPYWWGFLLAGLMFVSSTMQTLILHQHYHCIFVMALRIRTAIIGVIYRKALTITNSVKREYTVGEMVNLMSVDAQRFMDVSPFINLLWSAPLQVILAIYFLWQILGPSALAGVAVIVLLIPLNGAVSMKMKTYQVQQMKFKDSRIKLMSEILNGIKVLKLYAWEPTFLEQVEGIRQGELQLLRKGAYLQAISTFIWVCTPFMVTLITLGVYVCVDKNNVLDAEKAFVSLSLFNILKIPLNLLPQLISGMTQTSVSLKRIQDFLNQDELDPQCVERKTISPGRAITIHNGTFSWSKDLPPTLHSINIQIPKGALVAVVGPVGCGKSSLVSALLGEMEKLEGAVSVKGSVAYVPQQAWIQNCTLQENVLFGQPMNPKRYQQALETCALLADLDVLPGGDQTEIGEKGINLSGGQRQRVSLARAVYSDANIFLLDDPLSAVDSHVAKHIFDQVIGPEGVLAGKTRVLVTHGISFLPQTDFIIVLADGQITEMGHYSELLQHDGSFANFLRNYAPDENQEANEGVLQHANEEVLLLEDTLSTHTDLTDTEPAIYEVRKQFMREMSSLSSEGEGQNRPVLKRYTSSLEKEVPATQTKETGALIKEEIAETGNVKLSVYWDYAKSVGLCTTLFICLLYAGQNAVAIGANVWLSAWTNDVEEHGQQNNTSVRLGVYATLGILQGLLVMLSAFTMVVGAIQAARLLHTALLHNQIRAPQSFFDTTPSGRILNRFSKDIYVIHEVLAPTILMLFNSFYTSISTIVVIVASTPLFCVVVLPLAVFYGFVQRFYVATSRQLKRLESVSRSPIFSHFSETVTGTSVIRAYGRVQDFKVLSDAKVDSNQKTTYPYIASNRWLGVHVEFVGNCVVLFSALFAVIGRNSLNPGLVGLSVSYALQVTLSLNWMIRTLSDLESNIIAVERVKEYSKTETEAPWVLESNRAPEGWPRSGVVEFRNYSVRYRPGLELVLKNLTLHVQGGEKVGIVGRTGAGKSSMTLCLFRILEAAEGEIFIDGLNVAHIGLHDLRSQLTIIPQDPILFSGTLRMNLDPFGRYSDEDIWRTLELSHLSAFVSSQPTGLDFQCSEGGDNLSVGQRQLVCLARALLRKSRVLVLDEATAAIDLETDDLIQGTIRTQFEDCTVLTIAHRLNTIMDYNRVLVLDKGVVAEFDSPVNLIAAGGIFYGMAKDAGLA

Tests used:
[1] = biological target: T1, ATP-binding cassette sub-family C member 3 (Rattus norvegicus, UniProt O88563); assay: (§1) TP_TRANSPORTER: uptake in membrane vesicles from Mrp3-expressing Sf9 cells; format: functional, cell membranes, Membrane vesicle
[2] = biological target: T1, ATP-binding cassette sub-family C member 3; assay: TP_TRANSPORTER: inhibition of E217betaG uptake in membrane vesicles from Mrp3-expressing Sf9 cells; format: functional, cell membranes, Membrane vesicle
[3] = biological target: Multidrug resistance associated protein (Homo sapiens, UniProt Q96QA9); assay: (§2) TP_TRANSPORTER: inhibition of E217betaG uptake in membrane vesicle from MRP3-expressing Sf9 cells; format: functional, cell membranes
[4] = biological target: T1, ATP-binding cassette sub-family C member 3; assay: as §2; format: functional, cell membranes
[5] = substrate: C[C@]12CC[C@@H]3c4ccc(O)cc4CC[C@H]3[C@@H]1CC[C@@H]2O[C@@H]1O[C@H](C(=O)O)[C@@H](O)[C@H](O)[C@H]1O; settings: Sf9; Membrane vesicle
Description: TP_TRANSPORTER: uptake in membrane vesicle from MRP3-expressing Sf9 cells

[6] = substrate: C[C@]12CC[C@@H]3c4ccc(O)cc4CC[C@H]3[C@@H]1CC[C@@H]2O[C@@H]1O[C@H](C(=O)O)[C@@H](O)[C@H](O)[C@H]1O; assay: as §1; format: functional, cell membranes, Membrane vesicle

Molecule | Activity [1] | Ki [2] | Ki [3] | other results
N[C@@H](CCC(=O)N[C@H](CSc1ccc([N+](=O)[O-])cc1[N+](=O)[O-])C(=O)NCC(=O)O)C(=O)O | substrate [+] | 83.8 µM | 337 µM | –
CN(Cc1cnc2nc(N)nc(N)c2n1)c1ccc(C(=O)N[C@@H](CCC(=O)O)C(=O)O)cc1 [METHOTREXATE] | – | 90 µM | 1200 µM | –
O=C(O)[C@H]1O[C@@H](OCc2cc(=O)oc3cc(O)ccc23)[C@H](O)[C@@H](O)[C@@H]1O | – | 77 µM | 105 µM | –
CCCCC/C=C\C\C=C/C=C/C=C/[C@@H](SC[C@@H](NC(=O)CC[C@H](N)C(=O)O)C(=O)NCC(=O)O)[C@@H](O)CCCC(=O)O [LEUKOTRIEN C4] | substrate [+] | – | – | –
CNc1nc2c(Cc3cccnc3)c(C)c(O[C@@H]3O[C@H](C(=O)O)[C@@H](O)[C@H](O)[C@H]3O)c(C)c2s1 [E3040 GLUCURONIDE] | substrate [+] | – | 5.6 µM | Ki [4]: 2.6 µM
B1 | – | – | – | Km [5]: 42.9 µM
B2 | – | – | – | Km [6]: 33.4 µM
